Data from patent publication US20230302009A1, “BACE1 INHIBITOR TREATMENT FOR S[…] STORM” (priority 2020, published 2023).

Tests used:
LPS-challenged mice [1] = conditions: mice without LPS treatment, MK-8931 50 mg/kg oral
[2] = AD clinical trials (refs 27, 28, 34, 35); cited from earlier work
LPS-challenged mice [3] = assay: Survival rescue after lethal dose of LPS; type: in vivo, C57BL/6 mice
LPS-challenged mice [4] = assay: H&E histology, tissue injury score after LPS; conditions: LPS only or LPS plus MK-8931
[5] = MK-8931 plus LPS versus LPS only

CN1C(N)=N[C@](C)(c2cc(NC(=O)c3ccc(F)cn3)ccc2F)CS1(=O)=O [MK-8931]
plasma levels of cytokines/chemokines, MK-8931 alone (LPS-challenged mice [1]): did not affect | tolerability in patients [2]: safe oral drug and well-tolerated | mice died (LPS-challenged mice [3]; LPS 15 mg/kg i.p. plus MK-8931 50 mg/kg oral, 3 of 14 mice, between 20 to 96 hours after LPS): 21.4% | mice survived (LPS-challenged mice [3]; LPS 15 mg/kg i.p. plus MK-8931 50 mg/kg oral, 11 of the 14 mice): 78.6% | increase of survival (LPS-challenged mice [3]; [5]): 367% | reduction of mortality rate (LPS-challenged mice [3]; [5]): 3.7 fold | tissue injury in spleen and liver (LPS-challenged mice [4]): No significant tissue injury

C[C@@]1(c2nc(NC(=O)c3ncc(C(F)(F)F)cc3Cl)ccc2F)CO[C@@](C)(C(F)(F)F)C(N)=N1 [CNP50]
tolerability in patients [2]: well-tolerated

CC#Cc1cncc(-c2ccc3c(c2)C2(N=C(C)C(N)=N2)C2(CCC(OC)CC2)C3)c1 (stereo not drawn) [AZD3293]
tolerability in patients [2]: well-tolerated
